| Structure (SMILES) | melting point [°C] |
| --- | --- |
| O=C(CCS)NCCS | 40 |
| N#Cc1cnc2c(sc3ccccc32)c1Nc1cccc(Br)c1 | 240 to 242 |
| CCCCCCCN(CCCCCSc1ncnc2[nH]ncc12)C(=O)NC(C)C | 81 to 83 |
| CC(c1c[nH]cn1)C(N)CO (configuration not stated) | 168 |
| O=C(c1ccc(F)cc1)c1ccnc(Cl)c1 | 60 to 63 |
| CC(C)NCCOc1ccc(O)cc1 | 78 to 80 |
| COc1cc2c(cc1OC)C(C)=[N+]([O-])C(c1cccs1)N2 (configuration not stated) | 180 to 185 |
| Cc1cc(O)n(-c2ccc(N3CCOCC3)nn2)n1 | 189 to 192 |
| CCCc1c(OCCCCCC(=O)c2ccc(OC)c(OC)c2)ccc(C(=O)O)c1O | 114 to 117 |
| CCCCn1c(=O)c2cn(S(=O)(=O)c3cc(Cl)c(Cl)s3)nc2n(CCCC)c1=O | 181 to 182 |
| CC(=O)CC(=O)NC(=O)C(C)C | 148 to 160 |
| NC(=C[N+](=O)[O-])NCc1ccc(Cl)cc1 | 215 to 216 |
| CCOCc1nc2c(N)nc3cc(OCc4ccccc4Cl)ccc3c2n1CC(C)C | 211 to 212 |
| OC1CSC(Oc2cc(-c3ccccn3)ccc2Cl)C(O)C1O (configuration not stated) | 108 |
| O=C1C=CCC(CCc2ccc(Cl)cc2Cl)O1 (configuration not stated) | 69 to 70 |
| CNc1cc(Cl)cc(NC)c1[N+](=O)[O-] | 193 |
| COc1ccc(-c2[nH]c3cn[nH]c(=O)c3c2Cl)cc1OCC1CC1 | 256 to 258 |
| Nc1nc2c(ncn2COCCOC=O)c(=O)[nH]1 | 225 to 227 |
| N#Cc1nc(N)nc(N)c1-c1ccc(Cl)cc1Cl | 249 |
| O=C(NC1CCCCC1)c1c(O)c2cccnc2n(Cc2ccccc2)c1=O | 143 |

| Structure (SMILES) | melting point [°C] |
| --- | --- |
| Sc1nccn1Cc1c(Cl)cccc1Cl | 242 to 243 |
| COc1c(Cl)cc2c(Cl)nc(Cl)nc2c1OC | 154 to 155 |
| COc1cc(=O)[nH]c2cc(O)ccc2c1=O | 273 to 275 |
| O=C1NC(=O)C2(N1)C(=O)N(Cc1ccc(Cl)c(Cl)c1)c1ccc(Cl)cc12 (configuration not stated) | 257 to 259 |
| O=C(NCc1ccc(Cl)cc1)c1cn(CCN2CCCC2)c2sc(CN3CCOCC3)cc2c1=O | 178 to 180 |
| CCCn1c(=O)c2[nH]c(C3CCOC3)nc2n(CCC)c1=O (configuration not stated) | 177 to 178 |
| Fc1ccc(Nc2ncnc3ccc(-c4cccs4)cc23)cc1Cl | 205 to 208 |
| CCOC(=O)C1CCN(C(=O)CN2CCN(c3ccncc3)CC2)CC1 | 102 to 104 |
| Cc1nc(-n2ccc(OCc3ccc(C(F)(F)F)o3)cc2=O)sc1C(=O)O | 261 to 263 |
| Nc1ccc(Nc2ccc(S(=O)(=O)CCO)cc2[N+](=O)[O-])cc1S(=O)(=O)O | 204 |
| CC=CCn1c(=O)n(C2OC(CO)C(O)C2O)c2nc(N)[nH]c(=O)c21 (configuration not stated) | 167 to 170 |
| O=C(Cn1cccc(O)c1=O)NCCN(CCNC(=O)Cn1cccc(O)c1=O)CCNC(=O)Cn1cccc(O)c1=O | 112 to 114 |
| CCCCCN(CCCCC)CCCOC(=O)c1ccc2c(c1)-c1ccc(C(=O)OCCCN(CCCCC)CCCCC)c3cccc-2c13 | 148 to 151 |
| CC1(C)CC(=O)c2c(C3CC3)sc(C#N)c2C1 | 80 to 83 |
| Nc1nc(N)c(-c2cccc(Cl)c2Cl)c(CO)n1 | 173 to 176 |
| O=C(CBr)Nc1ccccc1 | 131 to 135 |
| N#Cc1ccc(-c2cncc(OC3SCC(O)C(O)C3O)c2)cc1Cl (configuration not stated) | 202 to 204 |
| CCOC(=O)c1cc2c(cn1)[nH]c1cccc(C=O)c12 | 273 to 276 |
| O[C@@H]1CCCC[C@H]1Nc1nc(Cl)ncc1Cl (relative stereo) | 139 to 142 |
| Cc1c(SCCCSc2sccc2[N+](=O)[O-])ccnc1CO | 134 to 138 |

| Structure (SMILES) | melting point [°C] |
| --- | --- |
| Cc1oc(-c2ccccc2)nc1COc1ccc(CCCCc2nnn[nH]2)cn1 | 104 to 105 |
| COC(C(N)=O)(C(N)=O)c1ccc(Cl)c(Cl)c1 | 211 to 213 |
| CC(C(=O)O)c1ccc2nc(N)[nH]c2c1 (configuration not stated) | 300 |
| CCc1cccc(C)c1CNc1cc(Br)cc2c1nc(COC)n2C | 110 to 112 |
| COc1ccc(C(=O)NCCCCCNC(=O)c2ccc(OC)cc2)cc1 | 160 to 161 |
| O=[N+]([O-])c1ccc(N2CCN(CCO)CC2)cc1 | 98 to 99 |
| CCn1c2c(c(=O)c3cc(C(C)C)ccc31)Cc1cc(C)sc1-2 | 168 to 169 |
| CCOC(=O)NCCCCCCNC(=O)OCC | 80 to 82 |
| C=CCOC(=O)NC12CC3CC(CC(C3)C1)C2 | 56 to 58 |
| CCC(=O)C(C)Oc1cc(C(=O)OC)ccc1OC (configuration not stated) | 63 to 65 |
| COC(=O)CNC(=O)c1ccc(I)cc1 | 166 to 168 |
| CCOC(=O)COc1c(C)cc(C(O)(C(F)(F)F)C(F)(F)F)cc1C | 99 to 101 |
| Cn1c(=O)c2c(nc3n2CC(O)CN3)n(C)c1=O (configuration not stated) | 360 |
| CNC(=O)C1C(C)(C)C1(C)C | 98 |
| COc1cc2c(-c3cc4cc(F)cnc4[nH]3)cn(CCN3CCOCC3)c2cc1OC | 205 to 210 |
| Fc1ccc(Nc2ncnc3cnc(N4CCC(N5CCOCC5)CC4)nc23)cc1Cl | 222 to 224 |
| N#CC(C#N)=CN(Cc1ccc(Cl)c(Cl)c1)c1cc(C(F)(F)F)cc(C(F)(F)F)c1 | 102 to 103 |
| COC(=O)c1nc(OC)nc(OC)c1Cl | 98 to 100 |
| O=C1N(Cc2noc(C(F)(F)F)n2)c2ccccc2C12COc1cc3c(cc12)OCO3 (configuration not stated) | 139 to 140 |
| CC(C)(C)[Si](C)(C)Oc1ccc2c(c1)oc(=O)c1c3ccc(O[Si](C)(C)C(C)(C)C)cc3oc21 | 118 to 119 |

Further lines, results first:

| melting point [°C] | Structure (SMILES) |
| --- | --- |
| 251 to 253 | Cc1c(C#N)sc2nc(-c3ccccc3)nc(N3CCNCC3)c12 |
| 118 | CC(C)N(CCCC(=O)OC1c2ccccc2C(=O)N1c1ccc2ccc(Cl)nc2n1)C(C)C (configuration not stated) |
| 254 to 256 | O=C(O)CN1C(=O)C(=Cc2ccccc2)SC1=S |
| 123 to 125 | Nc1ccc2ccccc2c1[N+](=O)[O-] |
| 198 to 200 | COC(=O)c1ccc(-c2ccccc2)cc1S(=O)(=O)NC(=O)Nc1nc(C)nc(OC)n1 |
| 189 to 190 | CCCN1C(=O)C(C(=O)Nc2ccc(Cl)cc2)S(=O)(=O)c2ccccc21 (configuration not stated) |
| 49 to 50.5 | Cc1ccc(SN(C)C=Nc2ccc(Cl)cc2C)cc1 |
| 232 to 243 | COc1ccc(/C=C/c2cc(/C=C/c3c[nH]c4ccccc34)n[nH]2)cc1OCc1ccccn1 |
| 137 to 140 | CCCCn1c2c(c(=O)n(CCCC)c1=O)CN(S(=O)(=O)Cc1ccccc1)N2 |
| 186 to 188 | CN(C)c1ccc(C2(c3ccc(N(C)C)cc3N(C)C)OC(=O)c3ccccc32)c(N(C)C)c1 |
| 106 to 112 | O=c1ccoc2cccc(OCCCN3CCN(c4ccccc4)CC3)c12 |
| 142 to 144 | O=C(CC(C(=O)c1ccccc1)C(O)=S)c1ccccc1 (configuration not stated) |
| 79 to 81 | Cc1ccc2c(n1)CC(c1ccccc1)CC2=O (configuration not stated) |
| 155 to 157 | COc1ccc(C)cc1NC(=O)Nc1ccc(N2CCN(C(=O)Nc3ccc(NC(C)=O)cc3Cl)CC2)cc1 |
| 70 to 73 | COc1c(OCc2ccccc2)cnc(CO)c1C |
| 238 to 239 | CC(C)(C)CC(NC(=O)c1cccc(Cl)c1)Nc1c(Nc2cccnc2)c(=O)c1=O (configuration not stated) |
| 149 to 151 | Cc1nc(-n2cnn(Cc3ccc(F)cc3)c2=O)sc1C(=O)NCc1cccc(N(C)C)c1 |
| 296 to 298 | Cc1ccc2[nH]c3c(cc(-c4cccc(C(=O)N5CCOCC5)c4)c(=O)n3C)c2c1 |
| 120 to 139 | CN1CCC2(C#N)C(C1)C1CN(C)C2C=C1C(=O)c1ccccc1 (configuration not stated) |
| 75 to 77 | O=C1CCCCC1=CC(=O)c1ccccc1 |
| 220 to 222 | Cc1cc2c(c3ccc(=O)[nH]c13)OC(CNC(=O)C(C)(C)NC(=O)OCc1ccccc1)C2 (configuration not stated) |

| melting point [°C] | Structure (SMILES) |
| --- | --- |
| 170 to 172 | CN(C)c1cccc(C(=O)N2CCC3(CC2)CSC2=C(O3)c3ccccc3C(=O)C2=O)c1 |
| 138 to 139 | COc1cccc(-c2ccc(C(=O)NCCOc3ccc(CC(Oc4ccc(C(C)C)cc4)C(=O)O)cc3)cc2)c1 (configuration not stated) |
| 235 to 236 | COc1ccc(C(=O)c2c(O)c3ccccc3[nH]c2=O)cc1OC |
| 150 | CN(C)c1ccccc1CC(=O)N1C[C@@H]2C(=O)CCC(c3ccccc3)(c3ccccc3)[C@@H]2C1 |
| 88 to 90 | CCOC(=O)C(C(=O)Nc1ccc(C)cc1)(c1ccccc1)c1ccccc1 |
| 124 to 126 | Clc1cccc(OC2CCNc3ncc(-c4ccc(N5CCOCC5)cc4)cc32)c1 (configuration not stated) |
| 125 to 126 | CCOC(=O)N=C(NCCCc1c[nH]cn1)NCCC(c1ccccc1)c1ccccc1 |
| 203 to 205 | Cc1nc(-n2cc(-c3ccc(F)cc3)nn2)sc1C(=O)NCc1ccccc1 |
| 259 to 262 | CCOC(=O)C1=C(C)Nc2n[nH]cc2C1c1ccccc1C(F)(F)F (configuration not stated) |
| 172 to 175 | O=C(c1ccccc1)c1ccc(CP(=O)(O)O)cc1 |
| 194 | NC(=O)NC[C@@H]1CCCc2cc(S(=O)(=O)c3cccc(F)c3)cc(F)c21 |
| 188 | COc1ccccc1Oc1c(OC)nn(C)c1NS(=O)(=O)c1ccc(C(C)(C)C)cc1 |
| 196 to 199 | O=C1CC(C(=O)NC(Cc2c[nH]cn2)C(=O)OCc2ccccc2)N1 (configuration not stated) |
| 150 | Cc1cc(CC2CCCCC2)c(NC(=O)OCc2ccccc2)c(=O)n1CC(=O)O |
| > 300 | CC1(C)CC(=O)Nc2cc3nc(-c4ccc(S(=O)(=O)O)cc4)[nH]c3cc21 |
| 138 to 140 | CC1(COC(=O)N2CCN(c3ccc(OC(F)(F)F)cc3)CC2)Cn2cc([N+](=O)[O-])nc2O1 (configuration not stated) |
| 147 to 148 | O=C1C=C(OCc2ccccc2)CN1 |
| 205 to 207 | O=C1Nc2c(C(F)(F)F)cccc2C1(O)c1cc(Cl)ccc1O (configuration not stated) |
| 207 to 210 | O=C(O)CN1C(=O)[C@@H](N[C@@H](CCC2CCCCC2)C(=O)O)CSc2ccccc21 |
| 99 to 112 | COC(=O)C(CO)N(Cc1ccc(Cl)cc1N)S(=O)(=O)c1ccc(OC)cc1 (configuration not stated) |
| 242 to 243 | Cc1ccc(-c2ccc(C(=O)Nc3ccc4nc(CN5C(C)(C)CCCC5(C)C)ccc4c3)cc2)cc1 |

Reference: a melting point compilation (Tetko et al.; mined from patent text by program, amines drawn as free bases though some values may be those of a salt)
